Results on ten molecules are retold here after patent US11304929B2, “Tosylacetate based compounds and derivatives thereof as PHGDH inhibitors” (priority 2017, dated 2022).

Structures are written as SMILES.

Experiment [1] deals with PHGDH (Homo sapiens (Human), UniProt O43175). Kind of experiment: 3-Phosphoglycerate Dehydrogenase (PHGDH) Fluorescence Intensity Assay, run at two NAD/3-PG ratios: PHGDH_HIGH_NAD/3-PG (250 μM NAD/500 μM 3-PG) and PHGDH_500_NAD/3-PG (500 μM NAD/500 μM 3-PG). Format: biochemical. The following applies: 250 μM NAD/500 μM 3-PG; read-out: IC50 (PHGDH_HIGH_NAD/3-PG).
PHGDH, sequence (O43175 2-533 limits assumed): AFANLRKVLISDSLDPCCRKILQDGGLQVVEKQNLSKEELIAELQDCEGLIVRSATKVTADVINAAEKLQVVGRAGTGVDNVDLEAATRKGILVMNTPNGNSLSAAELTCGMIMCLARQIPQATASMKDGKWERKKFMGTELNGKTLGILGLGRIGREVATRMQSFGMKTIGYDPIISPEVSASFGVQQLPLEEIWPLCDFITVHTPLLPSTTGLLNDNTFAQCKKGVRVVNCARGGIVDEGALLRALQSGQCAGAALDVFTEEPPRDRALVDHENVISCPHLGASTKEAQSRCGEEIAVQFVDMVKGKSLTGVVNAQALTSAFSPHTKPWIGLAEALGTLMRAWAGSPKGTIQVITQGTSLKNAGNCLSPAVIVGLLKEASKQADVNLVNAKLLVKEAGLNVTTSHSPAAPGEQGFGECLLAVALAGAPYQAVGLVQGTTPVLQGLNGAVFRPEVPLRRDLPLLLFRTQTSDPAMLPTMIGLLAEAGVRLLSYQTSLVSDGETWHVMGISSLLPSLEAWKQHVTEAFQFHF
In experiment [2] the test system is MDA-MB-468. Kind of experiment: 13C3 Serine Assay MDA-MB-468 (13C3 serine levels by LC/MS/MS). In kind it is cell-based. The following applies: Homo sapiens; MDA-MB-468 cells, 13C3 serine levels by LC/MS/MS; read-out: IC50 (13CSERINE).
Procedure: Cells are cultivated in Medium I in a 75 mL flask.
Day 1: 5000 cells in 180 μL Medium I/well were seeded into a 96-well plate. Plates were incubated at 37° C. in a 5% CO2 incubator overnight.
Day 2: 10 mM DMSO stock from test compounds were serially pre-diluted with Medium I (See dilution scheme: for the first well 20 μL DMSO stock are diluted with 180 μL Medium I. From this 1000 μM solution further seven 1:3 (1+2) dilution are prepared with Medium I). 20 μL of these pre-dilutions are transferred in duplicates to the 96-well plate of Day 1. After incubation at 37° C. in a CO2 incubator for 1 hour the medium was removed, 100 μL PBS (tempered to room temperature) added and subsequently removed again.
180 μL Medium II were then added per well and 20 μL of serial dilutions of test compounds in Medium II (as described before) were transferred per well as above. After 180 minutes incubation at 37° C. in a CO2 incubator the medium was again cautiously removed.
After the addition of 100 μL methanol: H2O (80:20, v:v, pre-cooled to −80° C.) the plates were sealed immediately and frozen at −80° C.
At day of measurement plates were thawn, centrifuged and the supernatant evaporated. The samples were resuspended in 100 μl water for tandem mass spectrometry.
^13C3 serine levels were analyzed with LC/MS/MS using Multiple Reaction Monitoring (MRM).
IC50 values were computed from these values using a 4 parametric logistic model.

In the case of `Cc1cc(Cl)c2cc(C(=O)N[C@H](C)c3ccc(S(=O)(=O)CC(=O)OCCOCCO)cc3)n(C)c2c1` [Example 09-005, 2-(2-hydroxyethoxy)ethyl 2-{4-[(1R)-1-[(4-chloro-1,6-dimethyl-1H-indol-2-yl)formamido]ethyl]benzenesulfonyl}acetate], the IC50 in experiment [1] was found to be 197 nM; in experiment [2] it was 139 nM.

Turning to `Cc1cc(Cl)c2cc(C(=O)N[C@H](C)c3ccc(S(=O)(=O)CC(=O)OCCO)cc3)n(C)c2c1` [Example 09-007, 2-hydroxyethyl 2-{4-[(1R)-1-[(4-chloro-1,6-dimethyl-1H-indol-2-yl)formamido]ethyl]benzenesulfonyl}acetate], the values for the IC50 in experiment [1] and in experiment [2] were 166 nM and 23.9 nM, respectively.

Consider `Cc1cc(Cl)c2cc(C(=O)N[C@H](C)c3ccc(S(=O)(=O)CC(=O)OCc4cccc(C(F)(F)F)c4)cc3)n(C)c2c1` [Example 09-011, [3-(trifluoromethyl)phenyl]methyl 2-{4-[(1R)-1-[(4-chloro-1,6-dimethyl-1H-indol-2-yl)formamido]ethyl]benzenesulfonyl}acetate], for which the IC50 is 3510 nM in experiment [1] and 20.1 nM in experiment [2].

Consider `Cc1cc(Cl)c2cc(C(=O)N[C@H](C)c3ccc(S(=O)(=O)CC(=O)OCC4(C)COC4)cc3)n(C)c2c1` [Example 09-012, (3-methyloxetan-3-yl)methyl 2-{4-[(1R)-1-[(4-chloro-1,6-dimethyl-1H-indol-2-yl)formamido]ethyl]benzenesulfonyl}acetate], for which the IC50 was 303 nM in experiment [1] and 22.2 nM in experiment [2].

As to `Cc1cc(Cl)c2cc(C(=O)N[C@H](C)c3ccc(S(=O)(=O)CC(=O)OCC(C)C)cc3)n(C)c2c1` [Example 09-013, 2-methylpropyl 2-{4-[(1R)-1-[(4-chloro-1,6-dimethyl-1H-indol-2-yl)formamido]ethyl]benzenesulfonyl}acetate], the IC50 was found to be 19300 nM in experiment [1] and 70.1 nM in experiment [2].

In the case of `Cc1cc(Cl)c2cc(C(=O)N[C@H](C)c3ccc(S(=O)(=O)CC(=O)OC4CCOCC4)cc3)n(C)c2c1` [Example 09-014, oxan-4-yl 2-{4-[(1R)-1-[(4-chloro-1,6-dimethyl-1H-indol-2-yl)formamido]ethyl]benzenesulfonyl}acetate], the IC50 in experiment [1] was 1040 nM; in experiment [2], 14.7 nM.

As for `Cc1cc(Cl)c2cc(C(=O)N[C@H](C)c3ccc(S(=O)(=O)CC(=O)OCCS(C)(=O)=O)cc3)n(C)c2c1` [Example 09-020, 2-methanesulfonylethyl 2-{4-[(1R)-1-[(4-chloro-1,6-dimethyl-1H-indol-2-yl)formamido]ethyl]benzenesulfonyl}acetate], the results for the IC50 in experiment [1] and in experiment [2] were 54 nM and 37.4 nM, respectively.

In the case of `CC(=O)OCOC(=O)CS(=O)(=O)c1ccc([C@@H](C)NC(=O)c2cc(-c3ccccc3)nn2C)cc1` [Example 10-003, (acetyloxy)methyl 2-{4-[(1R)-1-[(1-methyl-3-phenyl-1H-pyrazol-5-yl)formamido]ethyl]benzenesulfonyl}acetate], the IC50 in experiment [1] was found to be 816 nM; in experiment [2], 23.7 nM.

Turning to `C[C@@H](NC(=O)c1cc(-c2ccc(F)cc2)nn1C)c1ccc(S(=O)(=O)CC(=O)OCC2(C)COC2)cc1` [Example 10-006, (3-methyloxetan-3-yl)methyl 2-{4-[(1R)-1-{[3-(4-fluorophenyl)-1-methyl-1H-pyrazol-5-yl]formamido}ethyl]benzenesulfonyl}acetate], the IC50 was 938 nM in experiment [1] and 103 nM in experiment [2].

Regarding `Cc1cc(Cl)c2cc(C(=O)N[C@H](C)c3ccc(S(=O)(=O)CC(=O)NO)cc3)n(C)c2c1` [Example 14-020, 4-chloro-N-[(1R)-1-{4-[(hydroxycarbamoyl)methanesulfonyl]phenyl}ethyl]-1,6-dimethyl-1H-indole-2-carboxamide], the IC50 in experiment [1] was 172 nM; in experiment [2], 136 nM.
